These results are taken from US10100032B2, “Crystalline forms of 3-(4-amino-1-oxo-1,3 dihydro-isoindol-2-yl)-piperidine-2,6-dione” (AMPLIO PHARMA, LLC, priority 2011, dated 2018).

A short description of data set [1]: Water slurry analysis of lenalidomide cocrystals. It is filed as physicochemical. On the set-up: key: If the cocrystal was intact, the cocrystal could be described as less soluble than the stable 3-(4-amino-1-oxo-1,3 dihydro-isoindol-2-yl)-piperidine-2,6-dione form in water (characterized as “stable”); the cocrystal transformation indicates that under those conditions the cocrystal is more soluble than the stable form of the 3-(4-amino-1-oxo-1,3 dihydro-isoindol-2-yl)-piperidine-2,6-dione in water (characterized as “transformed”). The note with it: slurry of ~8 to 10 mg of cocrystal in 1 mL of pure water, stirred for 24 hours, solid isolated by filtration and analyzed by XRPD. The procedure: The solubility of the cocrystals obtained in Examples 1, 2, 3, 4, 5, 6, 7, and 8 were compared to the stable form of the API in pure water by creating a slurry of ˜8 to 10 mg of cocrystal in 1 mL of water. The resulting slurry was stirred for 24 hours. The solid was isolated by filtration and analyzed by XRPD.

Data set [2] in a line: Stability testing of lenalidomide cocrystals. It is filed as physicochemical. The note with it: stored at 40 degrees Celsius and 75% relative humidity (saturated NaCl) for 14 days, XRPD. On the set-up: key: the solids remained as the starting cocrystal material, indicating that they are stable under these conditions (“stable”); transformed partially or completely into a different crystalline material, indicating that they are not stable under these conditions (“not stable”).

Regarding `Nc1cccc2c1CN(C1CCC(=O)NC1=O)C2=O` [L-tartaric acid cocrystal of lenalidomide] [3-(4-amino-1-oxo-1,3-dihydroisoindol-2-yl)piperidine-2,6-dione-L-tartaric acid cocrystal], the Water slurry result in data set [1] is reported as “transformed”. Also, the Stability test result in data set [2] is “not stable”.
The matching figures for `Nc1cccc2c1CN(C1CCC(=O)NC1=O)C2=O` (centres unmarked) [propyl gallate cocrystal of lenalidomide, 3-(4-amino-1-oxo-1,3-dihydroisoindol-2-yl)piperidine-2,6-dione-propylgallate cocrystal]: “transformed” and “not stable”.
For the compound `Nc1cccc2c1CN(C1CCC(=O)NC1=O)C2=O` (centres unmarked) [gallic acid cocrystal of lenalidomide, 3-(4-amino-1-oxo-1,3-dihydroisoindol-2-yl)piperidine-2,6-dione-gallic acid cocrystal], the Water slurry result in data set [1] is “transformed”. Moreover, the Stability test result in data set [2] is on record as “stable”.
The matching figures for `Nc1cccc2c1CN(C1CCC(=O)NC1=O)C2=O` (centres unmarked) [malonic acid cocrystal of lenalidomide, 3-(4-amino-1-oxo-1,3-dihydroisoindol-2-yl)piperidine-2,6-dione-malonic acid cocrystal]: “transformed” and “not stable”.
The matching figures for `Nc1cccc2c1CN(C1CCC(=O)NC1=O)C2=O` (centres unmarked) [ammonium chloride cocrystal of lenalidomide] [3-(4-amino-1-oxo-1,3-dihydroisoindol-2-yl)piperidine-2,6-dione-ammonium chloride cocrystal]: “transformed” and “stable”.
The matching figures for `Nc1cccc2c1CN(C1CCC(=O)NC1=O)C2=O` (centres unmarked) [oxallic acid cocrystal of lenalidomide, 3-(4-amino-1-oxo-1,3-dihydroisoindol-2-yl)piperidine-2,6-dione and oxalic acid cocrystal]: “transformed” and “stable”.
With `Nc1cccc2c1CN(C1CCC(=O)NC1=O)C2=O` (centres unmarked) [urea cocrystal of lenalidomide, 3-(4-amino-1-oxo-1,3-dihydroisoindo-2-yl)piperidine-2,6-dione-urea cocrystal], the Water slurry result in data set [1] was “transformed”. In data set [2], the Stability test result is on record as “stable”.
